From patent US9241927B2, “Pharmaceutical compositions comprising sigma receptor ligands” (Laboratories Del Dr, Esteve, S.A., priority 2009, dated 2016)

What was measured:
pKa of API-001 = assay type: physicochemical
Text: (§1) API-001 has a pKa 6.8, being a weakly basic drug and having a solubility strongly influenced by pH of the medium.

[1] = pH solubility profile of API-001; assay type: physicochemical
Text: as §1
Therefore, it is expected that the extrusion-spheronization pellets of the invention to be absorbed over all the intestinal tract.

## Cc1cc(OCCN2CCOCC2)nn1-c1ccc2ccccc2c1.Cl [API-001, 4-{2-[5-Methyl-1-(naphthalen-2-yl)-1H-pyrazol-3-yloxy]ethyl}morpholine hydrochloride]
pKa of API-001
  pKa: 6.8
[1]; FIG. 2
  pH solubility profile: solubility of API-001 is decreasing when is increasing the pH of the medium
[1]; pH 6.8, aqueous buffer
  solubility: 600 µg/mL
